According to publication PMC5983371 (Experimental eye research, 2018):

Biological target: rhodopsin (light-activated, metarhodopsin II) (Bos taurus, UniProt P02699)
Experiment: UV/Visible extra Meta II stabilization assay
Type: binding

rhodopsin (light-activated, metarhodopsin II), sequence (P02699 whole entry): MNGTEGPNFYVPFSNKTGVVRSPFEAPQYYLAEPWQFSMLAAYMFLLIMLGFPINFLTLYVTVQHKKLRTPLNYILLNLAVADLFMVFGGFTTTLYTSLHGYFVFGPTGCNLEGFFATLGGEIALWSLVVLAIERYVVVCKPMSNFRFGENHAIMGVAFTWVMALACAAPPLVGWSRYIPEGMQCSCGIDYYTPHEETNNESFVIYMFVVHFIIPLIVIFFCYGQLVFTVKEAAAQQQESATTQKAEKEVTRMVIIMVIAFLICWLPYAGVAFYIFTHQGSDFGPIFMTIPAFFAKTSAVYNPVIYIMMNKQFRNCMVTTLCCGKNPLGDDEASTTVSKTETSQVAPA

EC50: 450 µM
SMILES: C[C@H](CCC(=O)NCCS(=O)(=O)O)[C@H]1CC[C@H]2[C@@H]3[C@@H](O)C[C@@H]4C[C@H](O)CC[C@]4(C)[C@H]3CC[C@]12C [TUDCA, Tauroursodeoxycholic acid]
